What was measured:
Nek2 = biological target: T1, Nek2 (Homo sapiens, UniProt P51955); type: biochemical; conditions: for fold improvement in Nek2 potency on substitution of the thiophene: comparator not given
T1 sequence (P51955 1-445): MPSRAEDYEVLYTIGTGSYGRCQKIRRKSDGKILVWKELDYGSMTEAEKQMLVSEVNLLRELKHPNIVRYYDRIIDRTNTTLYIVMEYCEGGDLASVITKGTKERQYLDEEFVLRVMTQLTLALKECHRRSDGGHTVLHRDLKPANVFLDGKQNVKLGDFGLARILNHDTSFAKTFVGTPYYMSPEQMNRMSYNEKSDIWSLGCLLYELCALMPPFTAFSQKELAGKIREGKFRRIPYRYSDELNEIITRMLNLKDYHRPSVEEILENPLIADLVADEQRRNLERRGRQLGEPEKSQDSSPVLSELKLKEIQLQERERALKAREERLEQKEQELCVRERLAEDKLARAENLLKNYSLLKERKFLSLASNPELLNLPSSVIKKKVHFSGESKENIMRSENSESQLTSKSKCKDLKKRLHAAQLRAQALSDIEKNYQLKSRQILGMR

Nek1 = biological target: T2, Nek1 (Homo sapiens, UniProt Q96PY6); test: Nek1 Caliper kinase assay; type: biochemical; conditions: Nek2 versus Nek1
T2 sequence (Q96PY6 1-505 limits assumed): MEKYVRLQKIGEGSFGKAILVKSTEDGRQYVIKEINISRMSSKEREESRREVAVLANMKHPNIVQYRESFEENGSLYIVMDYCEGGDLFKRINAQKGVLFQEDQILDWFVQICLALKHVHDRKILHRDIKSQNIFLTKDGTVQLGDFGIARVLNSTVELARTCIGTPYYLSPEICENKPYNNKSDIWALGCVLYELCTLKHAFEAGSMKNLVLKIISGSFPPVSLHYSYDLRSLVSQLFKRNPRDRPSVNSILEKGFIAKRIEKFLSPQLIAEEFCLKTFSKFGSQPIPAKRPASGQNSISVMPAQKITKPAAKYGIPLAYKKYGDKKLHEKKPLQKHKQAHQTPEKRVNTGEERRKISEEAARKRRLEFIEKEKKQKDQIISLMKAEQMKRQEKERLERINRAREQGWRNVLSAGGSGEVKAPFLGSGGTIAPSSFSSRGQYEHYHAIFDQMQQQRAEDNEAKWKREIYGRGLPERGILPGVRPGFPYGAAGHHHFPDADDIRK

SMILES	fold loss of Nek2 potency compared to hit 2 (Nek2)	selectivity against Nek1 (Nek1)	fold improvement in Nek2 potency on substitution of the thiophene (Nek2)
COc1cccc(-c2cnc(N)c(N3CCC(C(=O)O)CC3)n2)c1 [Compound 5]	4-5 fold	–	–
Nc1nccnc1N1CCC(C(=O)O)CC1 [Compound 8]	approximately 50 fold	–	–
COc1cc(-c2cnc(N)c(N3CC[C@H](C(=O)O)[C@H](C)C3)n2)cc(OC)c1OC [Compound 20, (−)-(3S,4S)-1-(3-Amino-6-(3,4,5-trimethoxyphenyl)pyrazin-2-yl)-3-methylpiperidine-4-carboxylic Acid]	10	–	–
CCc1ccsc1-c1cnc(N)c(N2CCC(C(=O)O)CC2)n1 [Compound 35]	–	approximately 10 fold	approximately 4 fold
Nc1ncc(-c2sccc2C2CC2)nc1N1CCC(C(=O)O)CC1 [Compound 36]	–	–	approximately 4 fold

From paper PMC2972649 (Journal of Medicinal Chemistry, 2010)
